Assay results as given in PubChem BioAssay (NCI).
“And” between values parts separate entries of the source, which are not always exact repeats. Equal values may be shown once.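 Interpolation was linear, between the two tested concentrations surrounding the appropriate level; five concentrations were tested over 48 hours in 96-well plates. The concentration for 50% growth inhibition is given as GI50. At the TGI there is no net growth.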

Legend:
Experiment in all cases: DTP human tumour cell line panel, 48 h
[1] = system: 786-0 renal
[2] = system: A498 renal
[3] = system: A549 NSCLC
[4] = system: ACHN renal
[5] = system: BT-549 breast
[6] = system: CAKI-1 renal
[7] = system: CCRF-CEM leukemia
[8] = system: COLO 205 colon
[9] = system: DU-145 prostate
[10] = system: EKVX NSCLC
[11] = system: HCC-2998 colon
[12] = system: HCT-116 colon
[13] = system: HCT-15 colon
[14] = system: HL-60(TB) leukemia
[15] = system: HOP-62 NSCLC
[16] = system: HOP-92 NSCLC
[17] = system: HS 578T breast
[18] = system: HT29 colon
[19] = system: IGROV1 ovarian
[20] = system: K-562 leukemia
[21] = system: KM12 colon
[22] = system: LOX IMVI melanoma
[23] = system: M14 melanoma
[24] = system: MALME-3M melanoma
[25] = system: MCF7 breast
[26] = system: MDA-MB-231 breast
[27] = system: MDA-MB-435
[28] = system: MDA-N
[29] = system: MOLT-4 leukemia
[30] = system: NCI-H226 lung
[31] = system: NCI-H23 lung
[32] = system: NCI-H460 lung
[33] = system: NCI-H522 lung
[34] = system: NCI/ADR-RES ovarian
[35] = system: OVCAR-3 ovarian
[36] = system: OVCAR-4 ovarian
[37] = system: OVCAR-5 ovarian
[38] = system: OVCAR-8 ovarian
[39] = system: PC-3 prostate
[40] = system: RPMI-8226 leukemia
[41] = system: RXF 393 renal
[42] = system: SF-268 CNS
[43] = system: SF-295 CNS
[44] = system: SF-539 CNS
[45] = system: SK-MEL-2 melanoma
[46] = system: SK-MEL-28 melanoma
[47] = system: SK-MEL-5 melanoma
[48] = system: SK-OV-3 ovarian
[49] = system: SN12C renal
[50] = system: SNB-19 CNS
[51] = system: SNB-75 CNS
[52] = system: SR leukemia
[53] = system: SW-620 colon
[54] = system: T-47D breast
[55] = system: TK-10 renal
[56] = system: U251 CNS
[57] = system: UACC-257 melanoma
[58] = system: UACC-62 melanoma
[59] = system: UO-31 renal

For `CC(=O)O[C@@H]1c2c(c3c(=O)c4cccc(O)c4c(=O)c=3c2=[N+]=[N-])[C@H](OC(C)=O)[C@@H](OC(C)=O)[C@]1(C)O`, which GI50 [1] is on record?
Its GI50 is 221 nM.

What about the TGI [1] of the same compound?
Its TGI is 944 nM and 548 nM.

What about the GI50 [2] of the same compound?
The GI50 was 1340 nM.

And the TGI [2]?
The TGI was 1820 nM and 3020 nM.

What about the GI50 [3] of the same compound?
Its GI50 is 51.8 nM.

What about the TGI [3] of the same compound?
The TGI was 1160 nM and 228 nM.

What about the GI50 [4] of the same compound?
Its GI50 is 161 nM.

What about the TGI [4] of the same compound?
The TGI was 374 nM and 300 nM.

What about the TGI [5] of the same compound?
Its TGI is 1330 nM.

And the GI50 [6]?
The GI50 was 182 nM.

What about the TGI [6] of the same compound?
Its TGI is 1040 nM and 374 nM.

And the TGI [7]?
Its TGI is 63.2 nM.

And the GI50 [8]?
The GI50 was 605 nM and 160 nM.

And the TGI [8]?
Its TGI is 1290 nM and 296 nM.

And the GI50 [9]?
The GI50 was 295 nM.

What about the TGI [9] of the same compound?
Its TGI is 1050 nM and 1170 nM.

What about the GI50 [10] of the same compound?
The GI50 was 122 nM.

What about the TGI [10] of the same compound?
Its TGI is 1380 nM and 663 nM.

And the GI50 [11]?
Its GI50 is 358 nM.

What about the TGI [11] of the same compound?
The TGI was 522 nM and 1220 nM.

And the GI50 [12]?
The GI50 was 271 nM.

What about the TGI [12] of the same compound?
The TGI was 617 nM and 890 nM.

And the GI50 [13]?
Its GI50 is 135 nM.

And the TGI [13]?
Its TGI is 476 nM and 298 nM.

What about the GI50 [14] of the same compound?
Its GI50 is 172 nM.

And the TGI [15]?
Its TGI is 1370 nM and 1980 nM.

And the GI50 [16]?
The GI50 was 172 nM.

And the TGI [16]?
Its TGI is 1840 nM and 355 nM.

What about the GI50 [17] of the same compound?
Its GI50 is 575 nM.

What about the TGI [17] of the same compound?
The TGI was 881 nM and 3540 nM.

And the GI50 [18]?
Its GI50 is 135 nM and 113 nM.

And the TGI [18]?
The TGI was 605 nM and 265 nM.

What about the GI50 [19] of the same compound?
Its GI50 is 300 nM.

And the TGI [19]?
The TGI was 987 nM and 1150 nM.

And the GI50 [20]?
The GI50 was 90.9 nM.

And the TGI [20]?
Its TGI is 3100 nM and 444 nM.

What about the GI50 [21] of the same compound?
Its GI50 is 270 nM.

What about the TGI [21] of the same compound?
Its TGI is 914 nM and 900 nM.

What about the TGI [22] of the same compound?
Its TGI is 413 nM and 275 nM.

And the GI50 [23]?
Its GI50 is 293 nM.

And the TGI [23]?
Its TGI is 992 nM and 357 nM.

What about the GI50 [24] of the same compound?
Its GI50 is 269 nM.

What about the TGI [24] of the same compound?
The TGI was 929 nM and 972 nM.

And the GI50 [25]?
The GI50 was 142 nM.

What about the TGI [25] of the same compound?
The TGI was 1110 nM and 291 nM.

What about the GI50 [26] of the same compound?
Its GI50 is 335 nM.

And the TGI [26]?
The TGI was 1460 nM and 1480 nM.

What about the GI50 [27] of the same compound?
Its GI50 is 270 nM.

What about the TGI [27] of the same compound?
Its TGI is 1420 nM and 880 nM.

And the GI50 [28]?
The GI50 was 235 nM.

And the TGI [28]?
The TGI was 1050 nM and 733 nM.

And the GI50 [29]?
The GI50 was 67.5 nM.

What about the TGI [29] of the same compound?
Its TGI is 275 nM and 358 nM.

And the GI50 [30]?
Its GI50 is 617 nM.

What about the TGI [30] of the same compound?
The TGI was 1450 nM and 2180 nM.

And the GI50 [31]?
Its GI50 is 411 nM.

And the TGI [31]?
Its TGI is 1770 nM and 1590 nM.

What about the GI50 [32] of the same compound?
The GI50 was 149 nM.

What about the TGI [32] of the same compound?
The TGI was 1900 nM and 352 nM.

What about the GI50 [33] of the same compound?
Its GI50 is 69.3 nM.

What about the TGI [33] of the same compound?
Its TGI is 776 nM and 201 nM.

What about the TGI [34] of the same compound?
The TGI was 658 nM.

What about the GI50 [35] of the same compound?
Its GI50 is 407 nM.

What about the TGI [35] of the same compound?
Its TGI is 1230 nM and 1400 nM.

What about the TGI [36] of the same compound?
The TGI was 4.32 µM and 2.16 µM.

What about the GI50 [37] of the same compound?
The GI50 was 613 nM.

And the TGI [37]?
Its TGI is 1230 nM and 1350 nM.

What about the GI50 [38] of the same compound?
The GI50 was 117 nM.

And the TGI [38]?
Its TGI is 770 nM and 461 nM.

What about the GI50 [39] of the same compound?
Its GI50 is 236 nM.

What about the TGI [39] of the same compound?
Its TGI is 1140 nM and 1000 nM.

What about the TGI [40] of the same compound?
Its TGI is 361 nM and 394 nM.

And the GI50 [41]?
The GI50 was 147 nM.

What about the TGI [41] of the same compound?
The TGI was 1280 nM and 296 nM.

What about the GI50 [42] of the same compound?
Its GI50 is 391 nM.

And the TGI [42]?
The TGI was 914 nM and 1670 nM.

And the GI50 [43]?
The GI50 was 785 nM.

What about the TGI [43] of the same compound?
Its TGI is 1500 nM and 1560 nM.

What about the GI50 [44] of the same compound?
The GI50 was 162 nM.

What about the TGI [44] of the same compound?
The TGI was 1140 nM and 316 nM.

What about the GI50 [45] of the same compound?
The GI50 was 495 nM.

What about the TGI [45] of the same compound?
The TGI was 1630 nM and 1180 nM.

What about the GI50 [46] of the same compound?
The GI50 was 829 nM.

What about the TGI [46] of the same compound?
Its TGI is 1510 nM and 2280 nM.

And the GI50 [47]?
The GI50 was 112 nM.

And the TGI [47]?
Its TGI is 1180 nM and 273 nM.

And the GI50 [48]?
The GI50 was 1010 nM.

What about the TGI [48] of the same compound?
The TGI was 2110 nM and 2000 nM.

What about the GI50 [49] of the same compound?
Its GI50 is 236 nM and 85.1 nM.

What about the TGI [49] of the same compound?
Its TGI is 815 nM and 288 nM.

What about the GI50 [50] of the same compound?
Its GI50 is 689 nM.

And the TGI [50]?
Its TGI is 2350 nM and 3510 nM.

What about the GI50 [51] of the same compound?
The GI50 was 582 nM.

What about the TGI [51] of the same compound?
Its TGI is 851 nM and 1690 nM.

What about the GI50 [52] of the same compound?
Its GI50 is 58.2 nM.

What about the TGI [52] of the same compound?
The TGI was 370 nM and 360 nM.

And the GI50 [53]?
The GI50 was 216 nM.

What about the TGI [53] of the same compound?
The TGI was 1220 nM.

What about the GI50 [54] of the same compound?
Its GI50 is 132 nM and 317 nM.

And the TGI [54]?
Its TGI is 649 nM and 1390 nM.

And the GI50 [55]?
Its GI50 is 191 nM.

And the TGI [55]?
The TGI was 1140 nM and 365 nM.

And the GI50 [56]?
The GI50 was 532 nM and 101 nM.

And the TGI [56]?
The TGI was 1140 nM and 222 nM.

And the GI50 [57]?
The GI50 was 295 nM.

And the TGI [57]?
Its TGI is 1400 nM and 815 nM.

What about the GI50 [58] of the same compound?
The GI50 was 297 nM.

And the TGI [58]?
Its TGI is 1350 nM and 1020 nM.

What about the GI50 [59] of the same compound?
Its GI50 is 167 nM.

What about the TGI [59] of the same compound?
The TGI was 1190 nM and 352 nM.
